Consider 7 compounds from US20170292959A1, “PLASMIDS COMPRISING INTERNAL RIBOSOMAL ENTRY SITES AND USES THEREOF” (Dana-Farber Cancer Institute, Inc., priority 2014, published 2017).

For data set [1], the system named is HIF1α. Briefly: Pilot ORF-luciferase stabilization experiment in 293FT cells (Fluc/Rluc). Type of data set: cell-based, human. The note with it: DMOG 1 μM, 24 hours. As to the method: (§1) FIGS. 6A-6B depict the pharmacological stabilization of firefly luciferase fusion protein. 293FT cells were transiently transfected with plasmids encoding unfused Fluc (pIRIF) or the indicated ORF-firefly luciferase (Fluc) fusions and then treated for 24 hours with DMOG (1 μM), MG132 (10 μM), or vehicle (DMSO). HIF1α-dPA is a HIF1α variant lacking both prolyl hydroxylation sites (33). Shown for each plasmid are Fluc/Rluc values (FIG. 6A) and Fold change in Fluc/Rluc compared to DMSO treatment (FIG. 6B). Data are mean±SD, n=4.
(§2) In pilot experiments 293FT embryonic kidney cells grown in multiwell plates were transfected with the ORF-luciferase library (one ORF per well) and treated with the proteasome inhibitor MG132, the hydroxylase inhibitor dimethyloxalylglycine (DMOG), or vehicle. Fluc/Rluc values measured 36 to 48 hours later were stable over a wide range of input plasmid concentrations (FIG. 5).

Data set [2] concerns proteasomal substrates. The description is as above. The data set is classed as cell-based, human. The note with it: MG132 10 μM, 24 hours. The protocol: as §1, §2
Data set [3] relates to IKZF1. Briefly: Exogenous IKZF protein level in 293FT cells (Fluc/Rluc ratio, HA immunoblot). The data set is classed as cell-based, human. The conditions noted are these: 12 hours; for effect on down-regulation of exogenous IKZF1 by lenalidomide: with lenalidomide 2 μM, MLN4924 1 μM or MG132 10 μM. The protocol: To verify the change of Fluc/Rluc of ORFs obtained from the 384-well high-throughput screen, each clone was further tested in a 96 well format. […] On the day of transfection 96-well polypropylene plates (Greiner) were used to prepare the transfection mixture. First, a plasmid mixture containing 240 ng of ORF luciferase fusion clone and 480 ng of pcDNA3 was diluted into 120 μl of Opti-MEM reduced serum. Next 14.4 μL of Lipofectamine 2000 was diluted into 120 μl of Opti-MEM reduced serum. 5 minutes later, the plasmid solution was mixed with the diluted Lipofectamine 2000 using a multi-channel pipette. […] 24 hours after transfection, cells were treated with LEN (2 μM) or DMSO in quadruplicate. […] The ratio of FLuc/Rluc was calculated for each well. To determine the change of Fluc/Rluc for each ORF, the averaged Fluc/Rluc of LEN treated wells was divided by that of DMSO treated wells. A 2-tailed Student's t test was performed to determine the statistical significance. P value <0.05 was considered significant.
(§3) Whole cell extracts were resolved by SDS-polyacrylamide gel electrophoresis, transferred onto a nitrocellulose membrane, and probed with the indicated primary antibodies. Bound antibodies were detected with horseradish peroxidase-conjugated secondary antibodies (Pierce) and enhanced chemiluminescence (ECL) western blotting detection regents (Pierce) or Immobilon western chemiluminescent horseradish peroxidase substrate (Millipore).
(In general: Immunoblotting shows a protein as a band on a membrane.)

For data set [4], the system named is endogenous IKZF1. Briefly: Immunoblot of endogenous protein in leukemia and myeloma cells. Type of data set: cell-based, human. The note with it: U937, MM1S and L363 cells; pretreated with MG132 or MLN4924.
From the text: as §3
(§4) For cycloheximide assays, cells were pretreated with DMSO or LEN (2 μM) for 1 hour, and then 100 μg/ml cycloheximide (Sigma) was added into the DMEM growth medium.

Data set [5] concerns endogenous IKZF3. Briefly: Immunoblot of endogenous protein in myeloma cells. Type of data set: cell-based, human. The conditions noted are these: MM1S and L363 cells; pretreated with MG132 or MLN4924.
From the text: as §3, §4

Data set [6] has as its system myeloma. The note with it: alone and in combination with lenalidomide; cited from earlier work.
For data set [7], the target named is T1, IKZF4 (Homo sapiens, UniProt Q9H2S9).
T1 construct: expressed in transfected cells; host or cells: 293FT
Briefly: Exogenous IKZF protein level in 293FT cells (Fluc/Rluc ratio, HA immunoblot). The data set is classed as cell-based. The conditions noted are these: lenalidomide 2 μM, 12 hours. As to the method:
(§5) To verify the change of Fluc/Rluc of ORFs obtained from the 384-well high-throughput screen, each clone was further tested in a 96 well format. The day before transfection, 293FT cells were seeded into solid opaque 96-well plates (BD biosciences) with 20,000 cells in 100 μl of DMEM culture media per well. On the day of transfection 96-well polypropylene plates (Greiner) were used to prepare the transfection mixture. First, a plasmid mixture containing 240 ng of ORF luciferase fusion clone and 480 ng of pcDNA3 was diluted into 120 μl of Opti-MEM reduced serum. Next 14.4 μL of Lipofectamine 2000 was diluted into 120 μl of Opti-MEM reduced serum. 5 minutes later, the plasmid solution was mixed with the diluted Lipofectamine 2000 using a multi-channel pipette. After 30 minutes, 28 μl of DNA/lipofectamine mixture was added to each well of the 96 well plates seeded with 293FT cells (8 wells for each ORF). […] The ratio of FLuc/Rluc was calculated for each well. […]
as §3

The target of data set [8] is T2, IKZF5 (Homo sapiens, UniProt Q9H5V7).
T2 construct: expressed in transfected cells; host or cells: 293FT
The data set is described as above. The note with it: lenalidomide 2 μM, 12 hours. Type of data set: cell-based. As to the method: as §5, §3

Data set [9] addresses IKZF2 with the reciprocal change (H141Q) (Homo sapiens, UniProt Q9UKS7, H141Q). The note with it: reciprocal change in IKZF2. From the text: (§6) Human IKZF4 cDNA clone was PCR amplified from ETS clone HsCD00295530 (PlasmID, DF/HCC DNA Resource Core), and then cloned into pDONR223 via BP gateway recombination. Human CRBN, human IKZF1 splicing variant 2 (IKZF1-V2), human IKZF2 splicing variant 2 (IKZF2-V2), human IKZF5 and human IRF4 in pDONR223 entry vectors were obtained from the human ORFeome Collection (DF/HCC DNA Resource Core). IKZF1 splicing variant 1 (IKZF1-V1) cDNA and human IKZF2 splicing variant 1 (IKZF2-V1) cDNA were generated by overlapping PCR and cloned into pDONR223 via BP gateway recombination. IKZF4, IKZF1-V1 and IKZF2-V1 were cloned into pIRIGF via LR gateway recombination. IKZF1/2 chimeras (IKZF12 H1, IKZF12 H2, IKZF12 H3, IKZF12 H4, IKZF21 H5, IKZF21 H6, IKZF21 H7, IKZF2 H8, IKZF121 and IKZF212), IKZF1-V2-Q146H, IKZF1-V2-H176P/L177F, IKZF2-V1-H141Q, IKZF2-V1-P171H/F172L, IKZF1-V1-Q146H, IKZF3-Q147H mutants were generated via overlapping PCR and cloned into pIRIGF via LR gateway recombination. IKZF1-V2, IKZF2-V2, IKZF3, IKZF4, IKZF5 and IRF4 were cloned into plenti-UBC-gate-3xHA-pGK-PUR via LR gateway recombination.

The target in data set [10] is IKZF1 Q146H (Homo sapiens, UniProt Q13422, Q146H). The note with it: IKZF1 residue Q146 changed to histidine.
From the text: as §6

The test system of data set [11] is IRF4 mRNA. Briefly: Real-time qPCR. Type of data set: cell-based, human. The conditions noted are these: MM1S cells treated with lenalidomide. The protocol:
Total RNA was extracted using Qiagen RNeasy Mini Kit with on-column DNase digestion. Total RNA was reverse transcribed into first-strand cDNA using AffinityScript QPCR cDNA Synthesis Kit (Agilent) with random primers. Real-time PCR was performed in duplicate using RT2 SYBR Green/ROX qPCR Master Mix (Qiagen) and the Mx3000P QPCR system (Stratagene). Values were averaged to calculate the expression level and normalized against the level of RPS18. PCR primers are as follows: […]
Background: In qPCR the cycle at which signal appears reflects the starting amount.

In data set [12] the target is T3, C11orf65 (Homo sapiens, UniProt Q8NCR3).
T3 construct: expressed in transfected cells; host or cells: 293FT
T3 sequence (Q8NCR3 1-313): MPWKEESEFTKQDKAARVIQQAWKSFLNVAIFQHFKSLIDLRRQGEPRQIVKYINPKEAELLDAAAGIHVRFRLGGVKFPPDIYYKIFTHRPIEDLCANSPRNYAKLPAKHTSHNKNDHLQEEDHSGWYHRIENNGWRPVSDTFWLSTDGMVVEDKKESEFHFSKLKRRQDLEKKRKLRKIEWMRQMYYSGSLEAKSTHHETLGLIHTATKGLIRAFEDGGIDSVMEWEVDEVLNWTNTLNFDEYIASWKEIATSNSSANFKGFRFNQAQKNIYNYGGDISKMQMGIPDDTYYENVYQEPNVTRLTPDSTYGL
Briefly: Exogenous protein level in 293FT cells (Fluc/Rluc ratio, HA tag). The data set is classed as cell-based. The note with it: lenalidomide.

The target of data set [13] is T4, IRF4 (Homo sapiens, UniProt Q15306).
T4 construct: expressed in transfected cells; host or cells: 293FT
Briefly: Exogenous protein level in 293FT cells (Fluc/Rluc ratio, HA immunoblot). Type of data set: cell-based. The conditions noted are these: lenalidomide 2 μM, 12 hours. The protocol:
as §5, §3

Data set [14] deals with IRF4. The note with it: at least indirectly; cited from earlier work.
Data set [15] deals with IRF4. Briefly: Immunoblot of endogenous protein in myeloma cells. Type of data set: cell-based, human. The note with it: LEN 2 μM.
From the text: as §3

Data set [16] deals with T5, IKZF3 (Homo sapiens, UniProt Q9UKT9).
T5 construct: expressed in transfected cells; host or cells: 293FT
Briefly: Exogenous IKZF protein level in 293FT cells (Fluc/Rluc ratio, HA immunoblot). The data set is classed as cell-based. The note with it: pomalidomide 0.2 μM, 12 hours. The protocol: To verify the change of Fluc/Rluc of ORFs obtained from the 384-well high-throughput screen, each clone was further tested in a 96 well format. […] On the day of transfection 96-well polypropylene plates (Greiner) were used to prepare the transfection mixture. First, a plasmid mixture containing 240 ng of ORF luciferase fusion clone and 480 ng of pcDNA3 was diluted into 120 μl of Opti-MEM reduced serum. Next 14.4 μL of Lipofectamine 2000 was diluted into 120 μl of Opti-MEM reduced serum. 5 minutes later, the plasmid solution was mixed with the diluted Lipofectamine 2000 using a multi-channel pipette. […] The ratio of FLuc/Rluc was calculated for each well. To determine the change of Fluc/Rluc for each ORF, the averaged Fluc/Rluc of LEN treated wells was divided by that of DMSO treated wells. A 2-tailed Student's t test was performed to determine the statistical significance. P value <0.05 was considered significant.
as §3

Data set [17] deals with zebrafish. The conditions noted are these: in vivo; cited from earlier work.
The target in data set [18] is cereblon (Homo sapiens, UniProt Q96SW2). The note with it: cited from earlier work.
Data set [19] has as its target cereblon autoubiquitination activity (Homo sapiens, UniProt Q96SW2). The note with it: cited from earlier work.
For data set [20] the following is noted: in vivo; cited from earlier work.

Where a SMILES comes first, the peptide text is derived from it. The star is where a group is joined. Cbz = O=C(OCc1ccccc1)*

For the compound `COC(=O)CNC(=O)C(=O)OC` [DMOG, dimethyloxalylglycine], the “stabilization of HIF1α-Fluc fusion (Fluc/Rluc)” value in [1] is listed as “stabilized”.
Take `CC(C)C[C@@H](C=O)NC(=O)[C@H](CC(C)C)NC(=O)[C@H](CC(C)C)NC(=O)OCc1ccccc1` [MG132] (Cbz-Leu-Leu-Leu-aldehyde): the “stabilization of ORF-Fluc fusions (Fluc/Rluc)” value in [2] is on record as “stabilized many proteasomal substrates”. In addition, the “effect on down-regulation of exogenous IKZF1 by lenalidomide” value in data set [3] was “blocked”. Moreover, in data set [4], the “effect of pretreatment on lenalidomide down-regulation of endogenous IKZF1” value is given as “unless the cells were pretreated”. The “effect of pretreatment on lenalidomide down-regulation of endogenous IKZF3” value in [5] was “unless the cells were pretreated”.
As for `NS(=O)(=O)OC[C@@H]1C[C@@H](n2ccc3c(N[C@H]4CCc5ccccc54)ncnc32)C[C@@H]1O` [MLN4924], in data set [3], the “effect on down-regulation of exogenous IKZF1 by lenalidomide” value is “blocked”. Further, the “effect of pretreatment on lenalidomide down-regulation of endogenous IKZF1” value in data set [4] is “unless the cells were pretreated”. In addition, the “effect of pretreatment on lenalidomide down-regulation of endogenous IKZF3” value in data set [5] is recorded as “unless the cells were pretreated”.
With `CC(C)C[C@H](NC(=O)[C@H](Cc1ccccc1)NC(=O)c1cnccn1)B(O)O` [bortezomib], the antimyeloma activity result in [6] was “has antimyeloma activity”.
For `Nc1cccc2c1CN(C1CCC(=O)NC1=O)C2=O` (stereo not drawn) [lenalidomide], the “level of exogenous IKZF4” value in data set [7] is “did not affect”. Besides, the “level of exogenous IKZF5” value in data set [8] is given as “did not affect”. In addition, the “sensitivity of IKZF2 mutant to lenalidomide” value in data set [9] is “partially sensitive”. Moreover, in [10], the “cereblon binding and lenalidomide-induced degradation” value is listed as “abrogated”. Moreover, the “IRF4 mRNA” value in [11] was “Decreased”. Also, the “level of C11orf65 fused to HA epitope tag instead of Fluc” value in data set [12] is “unaffected”. The “level of exogenous IRF4” value in data set [13] is listed as “did not affect”. For the same compound, in [14], the “IRF4 level, previous studies” value is “down-regulates”. The “IRF4 level (immunoblot, time course)” value in [15] (KMS34 cells, following loss of IKZF1 and IKZF3) is given as “decrease”; in data set [15] (L363 cells, high basal IRF4), “unaffected”; in [15] (MM1S cells, following loss of IKZF1 and IKZF3), “decrease”. In addition, the IRF4 level entry in data set [15] (three resistant lines (KMS11, RPMI8226, OCImy5)) is given as “not down-regulated”.
On to `Nc1cccc2c1C(=O)N(C1CCC(=O)NC1=O)C2=O` (stereo not drawn) [pomalidomide], for which the “level of IKZF3 fused to Fluc or HA” value in data set [16] is “downregulation”. Moreover, the “level of IKZF1 fused to Fluc or HA” value in [3] (pomalidomide 0.2 μM) is recorded as “downregulation”.
On to `O=C1CCC(N2C(=O)c3ccccc3C2=O)C(=O)N1` (stereo not drawn) [thalidomide], for which, in [17], the “effect of treatment of zebrafish” value is “caused fin defects”. Besides, in [18], the binding to cereblon entry is listed as “bind”. Moreover, the “effect on cereblon autoubiquitination activity” value in [19] is reported as “inhibit”. The teratogenicity entry in data set [20] is on record as “teratogenicity, manifest as profound limb defects”.
